# Earlier results in patent US20070197530A1, “Amido compounds and their use as pharmaceuticals” (priority 2006, published 2007).
# Tests used:
# [1] = test system: pancreatic islet cells of ob/ob mice
# healthy volunteers = conditions: after seven days of carbenoxolone treatment
# [2] = test system: primary hippocampal cells
smiles,measurement,setting,value
CC1(C)[C@@H](OC(=O)CCC(=O)O)CC[C@]2(C)[C@H]3C(=O)C=C4[C@@H]5C[C@@](C)(C(=O)O)CC[C@]5(C)CC[C@@]4(C)[C@]3(C)CC[C@@H]12 [carbenoxolone],glucose-stimulated insulin release,[1],improves glucose-stimulated insulin release
same,negative effects of glucocorticoids on bone nodule formation,bone nodule formation,attenuate the negative effects of glucocorticoids on bone nodule formation
same,IOP reduced by,healthy volunteers,18%
same,protection from glucocorticoid-mediated exacerbation of excitatory amino acid neurotoxicity,[2],protects the cells from glucocorticoid-mediated exacerbation of excitatory amino acid neurotoxicity
